Experimental data taken from paper PMC11068563, “The MCU and MCUb amino-terminal domains tightly interact: mechanisms for low conductance assembly of the mitochondrial calcium uniporter complex” (iScience, 2024).

Columns and labels:
[1] = biological target: T1, MCUb-NTD (MCUb58-159) (Homo sapiens, UniProt Q9NWR8); assay: ANS fluorescence titration, one-site fit; assay type: binding; conditions: read-out: apparent KD
T1 construct: N-terminal domain, residues 58-159; pET-28a, E. coli BL21(DE3) codon plus; N-terminal 6xHis tag cut with thrombin
T1 sequence (Q9NWR8 58-159): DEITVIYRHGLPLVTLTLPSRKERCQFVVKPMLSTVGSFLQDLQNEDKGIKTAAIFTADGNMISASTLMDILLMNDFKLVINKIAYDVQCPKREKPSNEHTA

[2] = biological target: T2, MCU-NTD-fluorescein (MCU residues 72-189 labelled with fluorescein-MTS at Cys97) (human, UniProt Q8NE86-1 72-189, fluorescein (fluorescein-methane thiosulfonate) on Cys97); assay: other fluorescence titration; steady-state fluorescein fluorescence; 0.1 uM MCU-NTD-fluorescein titrated with MCUb-NTD; 20 mM Tris (pH 8.5), 150 mM NaCl, 1 mM DTT, 0.0001% (v/v) NP-40, 22.5°C; one-site model; conditions: both partners purified
T2 construct: mitochondrial calcium uniporter (MCU), Homo sapiens, GenBank NP_612366.1, residues 72-189 (amino-terminal domain); Same chain as m2, with the label; also called fluorescein-MCU-NTD; MCU_(72-189) labeled
T2 sequence (looked up): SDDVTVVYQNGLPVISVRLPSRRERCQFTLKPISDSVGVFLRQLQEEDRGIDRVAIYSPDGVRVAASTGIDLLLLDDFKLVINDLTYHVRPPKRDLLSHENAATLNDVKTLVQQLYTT

O=S(=O)(O)c1cccc2cccc(Nc3ccccc3)c12 [ANS, 8-Anilinonapthalene 1-sulfonic acid]
Kd [1]: 1500 ± 600 nM

B1: MCUb amino-terminal domain (MCUb-NTD), MCUb residues 58-159 (domain or fragment, human, UniProt Q9NWR8 58-159, looked up)
chain: T1 sequence (Q9NWR8 58-159)
notes: MCU dominant negative beta subunit (MCUb), Homo sapiens, GenBank NP_060388.2, residues 58-159 (amino-terminal domain); Cloned into pET-28a by NheI and XhoI; printed as 6xHis-MCUb_(58-159); theoretical monomer mass 12.0098 kDa and 107 expected backbone amides are printed, so a few vector residues probably remain after thrombin cleavage (surmise); also called MCUb_(58-159); 15N-MCUb-NTD; source: E. …
Kd [2]: 125 nM
